Test results as given in article PMC8509428, “The Phenoxyalkyltriazine Antagonists for 5-HT6 Receptor with Promising Procognitive and Pharmacokinetic Properties In Vivo in Search for a Novel Therapeutic Approach to Dementia Diseases” (International Journal of Molecular Sciences, 2021).
Values joined by “and” are separate entries in the source; they are usually repeats but may differ in a detail not shown here. Identical values can stand only once. Like-named read-outs stand apart in the source and are kept apart here.

Assays:
[1] = Metabolic stability in rat liver microsomes; assay type: in vitro ADME
Procedure: The tested 5-HT6R ligands (50 µM) were incubated in the presence of RLMs (1 mg/mL) in 10 mM Tris–HCl buffer (37 °C). The LC/MS analyses with additional MS ion fragmentation of the products and substrates were performed to determine the most probable structures of 5-HT6R ligands’ metabolites. LC/MS Waters ACQUITY™ TQD system with the TQ Detector (Waters, Milford, CT, USA).

[2] = tested on: Salmonella Typhimurium TA100; assay type: cell-based
From the text: The used Salmonella Typhimurium TA100 strain has base pair substitution (hisG46 mutation, which target is GGG). […] The occurrence of revertants was visualized by pH indicator dye which was present in the bacterial medium.

[3] = Pharmacokinetics and tissue distribution in rats; assay type: in vivo, rat; conditions: for Kp: intraperitoneal
Procedure: To assess pharmacokinetic profile and tissue penetration of 2 and 3, the male Wistar rats were a single intraperitoneal (i.p.) injected with these compounds dissolved in tween (vehicle volume 1 mL/kg) at a dose of 0.3 mg/kg, determined in behavioral studies. The animals were killed by decapitation under deep anesthesia (i.p. injection of 50 mg/kg ketamine and 7.5 mg/kg xylazine) at 5, 15, 30, 60, 120 and 240 min after compounds administration (four animals per time point) and blood samples (approximately 5–6 mL) were collected into tubes. Moreover, five tissues (i.e., brain, heart, lungs, kidneys and liver) were harvested, rinsed with cold saline, and the wet weights determined. Blood was allowed to clot for 15–20 min at room temperature and then centrifuged (3000 rpm for 10 min). The obtained serum and tissues were stored frozen at −80 °C until analysis.
The concentrations of both test compounds in serum and tissue homogenates were measured by a reverse-phase high-performance liquid chromatography method with ultraviolet detection (HPLC/UV). […] The mobile phase consisted of methanol/10 mM potassium dihydrogen phosphate buffer, pH 4.6/acetonitrile (51/40/9, v/v/v). The isocratic separation was performed at 1.0 mL/min constant flow-rate with column temperature maintained at 38 °C. The detection wavelength was set at 206 nm for 2 and at 215 nm for 3. […] EZChrome Elite v. 3.3.2 software (VWR, Darmstadt, Germany) was used for data acquisition.
Before analysis, tissue samples were thawed, placed in four volumes (w/v) of phosphate-buffered saline (PBS, pH 7.4) and homogenized using a MICCRA D-1 homogenizer (ART Prozess- & Labortechnik GmbH & Co., Heitersheim, Germany). To isolate 2 or 3, 500 µL of rat serum or tissue homogenate containing this compound were mixed with a 20-μL volume of IS solution (50 ng/mL or 200 ng/g in methanol). As an IS for compound 2 quantification, compound 3 was used and vice versa.
The samples were alkalized with 50 μL of 4 M sodium hydroxide solution, vortex-mixed, and extracted with 1 mL of ethyl acetate/hexane (30/70, v/v) mixture on a shaker (VXR Vibrax, IKA, Legnica, Poland) for 20 min. After centrifugation (Eppendorf, Mini Spin Plus, Hamburg, Germany), the organic layers were transferred into new tubes containing 100 μL of methanol and 0.1 M sulfuric acid (10/90, v/v) mixture. Then, the samples were shaken and centrifuged again. Finally, 20–90 μL of each acidic layer was injected into the HPLC system.
Other pharmacokinetic parameters were determined on subjecting the concentration–time data to non-compartmental analysis using Phoenix WinNonlin 8.2 software (Pharsight Corporation, a Certara Company, Princeton, NJ, USA).

rats [4] = experiment: Forced swim test (FST); assay type: in vivo, rat; conditions: for Immobility Time: 60 min before test, mean ± SEM
Procedure: The experiment was carried out according to the method of [54]. On the first day of the experiment, the animals were gently individually placed in Plexiglas cylinders (40 cm high, 18 cm in diameter) containing 15 cm of water maintained at 23–25 °C for 15 min. On removal from water, the rats were placed for 30 min in a Plexiglas box under 60-W bulb to dry. On the following day (24 h later), the rats were replaced in the cylinder and the total duration of immobility was recorded during the whole 5-min test period. The immobility was assigned when no additional activity was observed other than that necessary to keep the rat’s head above the water. Fresh water was used for each animal.

rats [5] = experiment: Exploratory activity measured in the EPM test; assay type: in vivo, rat; conditions: mean ± SEM
Procedure: The experiment was performed using an EPM apparatus (details see above). Total ambulation (the total distance covered by a rat, and ambulation along X and Y axis) was taken to discern drug effects on general activity from those on open-arm exploration, during a 5-min test period (i.e., the time equal to the observation period in the EPM test). Rats’ behavior was not videotaped during the test.

5-HT7R = conditions: ± SD; read-out: Ki 5-HT7 (converted); cited from earlier work
[6] = molecular target: human serotonin 5-HT6 receptor (Homo sapiens, UniProt P50406); experiment: Functional assay for 5-HT6 receptor (cAMP, 1321N1 cells)
Chain of human serotonin 5-HT6 receptor (P50406 whole entry): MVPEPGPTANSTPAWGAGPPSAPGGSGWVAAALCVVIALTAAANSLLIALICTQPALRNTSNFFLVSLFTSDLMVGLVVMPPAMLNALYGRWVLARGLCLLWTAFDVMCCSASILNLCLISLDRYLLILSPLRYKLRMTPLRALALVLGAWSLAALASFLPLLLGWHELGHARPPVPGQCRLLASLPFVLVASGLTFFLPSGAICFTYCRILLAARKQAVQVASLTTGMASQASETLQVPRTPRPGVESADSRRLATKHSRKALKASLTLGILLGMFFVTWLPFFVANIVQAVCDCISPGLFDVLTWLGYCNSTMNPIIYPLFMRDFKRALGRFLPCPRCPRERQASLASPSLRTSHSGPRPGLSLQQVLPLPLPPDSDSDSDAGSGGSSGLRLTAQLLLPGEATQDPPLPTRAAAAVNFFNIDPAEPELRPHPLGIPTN

[7] = estimated from MS spectra supported by in silico data
[8] = rat serum, 0.3 mg/kg i.p., 0.3 mg/kg

## CCC(Oc1cccc(Cl)c1Cl)c1nc(N)nc(N2CCN(C)CC2)n1 (racemic) [Compound 2, (RS)-4-[1-(2,3-dichlorophenoxy)propyl]-6-(4-methylpiperazin-1-yl)-1,3,5-triazin-2-amine]
[1]; RLMs, 120 min incubation
  parent compound remaining in the reaction mixture (Area%): 80%
  parent structure biotransformed: 20%
[1]; [7]
  Metabolic Pathway, metabolite M1: hydroxylation
  Metabolic Pathway, metabolite M2: hydroxylation
  Metabolic Pathway, metabolite M3: demethylation
[2]; 1 µM
  Binomial B-Value: 0.2601
  Number of Revertants ± SD: 12.00 ± 7.55
[2]; 10 µM
  Binomial B-Value: 0.5425
  Number of Revertants ± SD: 13.33 ± 2.31
[3]; AUC0-t tissue / AUC0-t serum
  Kp, brain: 2.69
  Kp, kidneys: 16.52
[3]; male, Wistar, ip, rat serum, 0.3 mg/kg i.p.
  MRT: 90.1 min
[3]; male, Wistar, rat, brain (vs serum), 0.3 mg/kg, AUC0-t tissue / AUC0-t serum, read-out: Kp, brain
  Kp: 2.03
[3]; male, Wistar, rat, brain, ip, 0.3 mg/kg, rat, 0.3 mg/kg i.p., read-out: elimination half-life, brain tissue
  half-life: 149 min
[3]; male, Wistar, rat, heart / serum, 0.3 mg/kg, AUC0-t tissue / AUC0-t serum, read-out: Kp, heart
  Kp: 2.3
[3]; male, Wistar, rat, heart, ip, 0.3 mg/kg, rat, 0.3 mg/kg i.p., read-out: Tmax, heart (converted)
  Tmax: 5 min
[3]; male, Wistar, rat, kidneys (vs serum), 0.3 mg/kg, AUC0-t tissue / AUC0-t serum, read-out: Kp, kidneys
  Kp: 16.5
[3]; male, Wistar, rat, kidneys, ip, 0.3 mg/kg, rat, 0.3 mg/kg i.p., read-out: Tmax, kidneys (converted)
  Tmax: 15 min
[3]; male, Wistar, rat, liver (vs serum), 0.3 mg/kg, AUC0-t tissue / AUC0-t serum, read-out: Kp, liver
  Kp: 14.4
[3]; male, Wistar, rat, liver, ip, 0.3 mg/kg, rat, 0.3 mg/kg i.p., read-out: Tmax, liver (converted)
  Tmax: 15 min
[3]; male, Wistar, rat, lungs / serum, 0.3 mg/kg, AUC0-t tissue / AUC0-t serum, read-out: Kp, lungs
  Kp: 8.54
[3]; male, Wistar, rat, lungs, ip, 0.3 mg/kg, rat, 0.3 mg/kg i.p., read-out: Tmax, lungs (converted)
  Tmax: 5 min
[3]; male, Wistar, rat, serum, ip, 0.3 mg/kg, rat serum, 0.3 mg/kg i.p., read-out: CL/F (converted)
  CL/F: 515 mL/min/kg
[3]; male, Wistar, rat, serum, ip, 0.3 mg/kg, rat, 0.3 mg/kg i.p., read-out: Tmax, serum (converted)
  Tmax: 15 min
[3]; male, Wistar, rat, serum, ip, 0.3 mg/kg, rat, 0.3 mg/kg i.p., read-out: t1/2λz, serum
  half-life: 116 min
[3]; male, Wistar, serum, ip, rat, 0.3 mg/kg i.p., mean ± SD
  Cmax: 5.2 ± 2.24 ng/mL
[3]; male, Wistar, serum, ip, rat, 0.3 mg/kg i.p., mean ± SD, read-out: AUC0-t, serum (converted)
  AUC(0-t): 7.56 ng·h/mL
[3]; male, Wistar, serum, ip, rat, 0.3 mg/kg i.p., mean ± SD, read-out: AUC0-∞, serum (converted)
  AUC(0-inf): 8.85 ng·h/mL
[3]; [8]
  CL/F: 514.5 ± 165 mL/min/kg
  Vz/F: 81 L/kg and 80.99 ^a ± 18.22 L/kg
[3]; rat, 0.3 mg/kg i.p.
  AUC0-t, brain: 1219.94 ± 368.79 ng·min/mL or ng·min/g
  AUC0-t, liver: 6523.60 ± 4997.28 ng·min/mL or ng·min/g
  AUC0-t, lungs: 3870.66 ± 680.07 ng·min/mL or ng·min/g
  Cmax, heart: 8.90 ± 8.15 ng/mL or ng/g
  Cmax, kidneys: 65.73 ± 34.94 ng/mL or ng/g
  Cmax, liver: 115.22 ± 93.46 ng/mL or ng/g
  Cmax, lungs: 54.20 ± 21.61 ng/mL or ng/g
[3]; rat, 0.3 mg/kg i.p., 0.3 mg/kg
  AUC0-t, heart: 1040.7 ng·min/mL or ng·min/g and 1040.74 ± 448.65 ng·min/mL or ng·min/g
  AUC0-t, kidneys: 7488.1 ng·min/mL or ng·min/g and 7488.06 ± 4372.92 ng·min/mL or ng·min/g
  Cmax, brain: 11.63 ± 3.13 ng/mL or ng/g
  t1/2λz, serum: 116 min and 116.18 ^a ± 17.14 min
Rats [4]; 1 mg/kg i.p.
  Immobility Time: 223.13 ± 11.4 s
Rats [4]; 3 mg/kg i.p.
  Immobility Time: 220.71 ± 4.7 s
Rats [4]; 10 mg/kg
  decrease of immobility time vs vehicle-treated group: 25%
Rats [4]; 10 mg/kg i.p.
  Immobility Time: 171.38 ± 12.80 s
Rats [5]; 0.3 mg/kg i.p.
  Total Distance: 4372 ± 132 cm
  X Ambulation: 180 ± 9
  Y Ambulation: 101 ± 9
Rats [5]; 1 mg/kg i.p.
  Total Distance: 3987 ± 281 cm
  X Ambulation: 149 ± 18
  Y Ambulation: 78 ± 9
Rats [5]; 3 mg/kg i.p.
  Total Distance: 4595± 191 F(3,23) = 2.9772; NS cm
  X Ambulation: 168 ± 6 F(3,23) = 1.9417; NS
  Y Ambulation: 115 ± 7 F(3,23) = 3.1727; NS
5-HT7R
  Ki: 5.2 µM
[6]; 1321-N1, read-out: 5-HT6 Antagonist Mode Emax
  Emax: 96%
[6]; 1321-N1, read-out: 5-HT6R Agonist Mode Emax
  Emax: 5 ± 1.1%
